Starred links: 1 amine or outer side, 2 acyl side, 3 side chain; linkers in the order of their positions; H or OH if unused. Non-standard residues stand in square brackets, D forms with d. Residues, ends and D or L forms follow the SMILES beside them. Groups on a side chain read outwards from the residue. ξ: configuration not given here. *: point of attachment. γGlu = O=C(O)[C@H](CCC(=O)[*:2])N[*:1]; ξαMeF = CC(N)(Cc1ccccc1)C(=O)O; Lauroyl = CCCCCCCCCCCC(=O)*; ξαMeK = CC(N)(CCCCN)C(=O)O; ξαMeS = CC(N)(CO)C(=O)O; AEEA = NCCOCCOCC(=O)O; Aib = CC(C)(N)C(=O)O
Test system: Caco-2 cells
Test: Caco-2 study, Permeability (%) of lipidated peptides (Example 3)
Type: in vitro ADME, human
Details: 0.1 mg/mL peptide
Description: The Caco-2 cell line is a continuous cell line of heterogeneous human epithelial colorectal adenocarcinoma cells, which when cultured under specific conditions, become differentiated and polarized such that their phenotype, morphologically and functionally, resembles the enterocytes lining the small intestine. Caco-2 cells express tight junctions, microvilli, and a number of enzymes and transporters that are characteristic of such enterocytes. Caco-2 cells are most commonly used as a tight junction monolayer that provides a physical and biochemical barrier to the passage of drugs and thus serves as an in vitro model of the human small intestinal mucosa to predict the absorption of orally administered drugs. Caco-2 permeability assays were performed by Cyprotex US, LLC (MA, USA) to assess the efficacy of different permeation enhancers. Caco-2 cells were grown on Transwell filters until a transepithelial electric resistance of ˜1000 ohms/cm^2 was achieved. The cells were incubated for three hours with media containing test samples on the apical (top) side of the cell layer, and with blank media on the basolateral (lower) side of the cell layer. Media from the apical and basolateral sides was collected separately after three hours and evaluated for the amount of peptide present on each side. Table 2 gives the permeability coefficient (Papp) of the various test samples, which include the SEQ ID NO:3 GLP-1 peptide in the presence of different excipients.
A following Caco-2 study was performed to evaluate the permeability of different peptides in the presence of various permeation enhancers. Permeability (%) was calculated by dividing the cumulative amount of molecules transported with the original loading amount. Concentrations of peptides in starting sample and apical and basal solutions after incubation for pre-determined periods were analyzed by HPLC. Sodium chenodeoxycholate at 25 mg/mL effected the highest permeability of each tested peptide (Table 4).

[1] = 5.0 mg/mL Sodium Chenodeoxycholate
[2] = 25 mg/mL Sodium Chenodeoxycholate

| Permeability (%) [1] | Permeability (%) [2] | Structure (SMILES) |
| --- | --- | --- |
| 0% | 14.3% | CC[C@H](C)[C@H](NC(=O)[C@H](Cc1ccccc1)NC(=O)[C@H](CCC(=O)O)NC(=O)[C@H](CCCCNC(=O)COCCOCCNC(=O)COCCOCCNC(=O)CC[C@H](NC(=O)CCCCCCCCCCCCCCCCC(=O)O)C(=O)O)NC(=O)[C@H](C)NC(=O)[C@H](C)NC(=O)[C@H](CCC(=O)O)NC(=O)CNC(=O)[C@H](CCC(=O)O)NC(=O)[C@H](CC(C)C)NC(=O)C(C)(Cc1ccccc1)NC(=O)[C@H](CO)NC(=O)C(C)(CO)NC(=O)[C@@H](NC(=O)[C@H](CC(=O)O)NC(=O)[C@H](CO)NC(=O)[C@@H](NC(=O)C(C)(Cc1ccccc1)NC(=O)[C@H](CO)NC(=O)CNC(=O)[C@H](CCC(=O)O)NC(=O)C(C)(C)NC(=O)[C@@H](N)Cc1c[nH]cn1)[C@@H](C)O)C(C)C)C(=O)N[C@@H](C)C(=O)NC(C)(Cc1ccccc1)C(=O)N[C@H](C(=O)N[C@H](C(=O)NC(C)(CCCCN)C(=O)NCC(=O)NCC(N)=O)C(C)C)C(C)C (stereo partly drawn) [SEQ ID NO: 4, Free-H-[AIB]-EGS-[αMePhe]-TSDV-[αMeSer]-S-[αMePhe]-LEGEAAK[(PEG2)2-γE-Stearate]-EFIA-[αMePhe]-VV-[αMeLys]-GG-amide] |
| 1.7% | 11.6% | CCCCCCCCCCCC(=O)N[C@@H](CCC(=O)NCCOCCOCC(=O)NCCOCCOCC(=O)NCCCC[C@H](NC(=O)[C@H](CC(=O)O)NC(=O)[C@H](CO)NC(=O)[C@@H](NC(=O)C(C)(Cc1ccccc1)NC(=O)[C@H](CO)NC(=O)CNC(=O)[C@H](CCC(=O)O)NC(=O)C(C)(C)NC(=O)[C@@H](N)Cc1c[nH]cn1)[C@@H](C)O)C(=O)N[C@@H](CO)C(=O)N[C@@H](CO)C(=O)N[C@@H](Cc1ccc(O)cc1)C(=O)N[C@@H](CC(C)C)C(=O)N[C@@H](CCC(=O)O)C(=O)NCC(=O)N[C@@H](CCC(=O)O)C(=O)N[C@@H](C)C(=O)N[C@@H](C)C(=O)NC(C)(CCCCN)C(=O)N[C@@H](CCC(=O)O)C(=O)N[C@@H](Cc1ccccc1)C(=O)N[C@H](C(=O)N[C@@H](CCCCNC(=O)COCCOCCNC(=O)COCCOCCNC(=O)CC[C@H](NC(=O)CCCCCCCCCCC)C(=O)O)C(=O)N[C@@H](Cc1c[nH]c2ccccc12)C(=O)N[C@H](C(=O)N[C@H](C(=O)N[C@@H](CCC(=O)O)C(=O)NCC(=O)NCC(N)=O)C(C)C)C(C)C)[C@@H](C)CC)C(=O)O (stereo partly drawn) [SEQ ID NO: 8] (H-H[Aib]EGS[ξαMeF]TSDK([AEEA-AEEA-γGlu-Lauroyl])SSYLEGEAA[ξαMeK]EFIK([AEEA-AEEA-γGlu-Lauroyl])WVVEGG-NH2) |
| 3.1% | 13.9% | CCCCCCCCCCCC(=O)N[C@@H](CCC(=O)NCCOCCOCC(=O)NCCOCCOCC(=O)NCCCC[C@H](NC(=O)[C@H](C)NC(=O)[C@@H](NC(=O)[C@H](Cc1ccccc1)NC(=O)[C@H](CCC(=O)O)NC(=O)C(C)(CCCCN)NC(=O)[C@H](C)NC(=O)[C@H](C)NC(=O)[C@H](CCC(=O)O)NC(=O)CNC(=O)[C@H](CCC(=O)O)NC(=O)[C@H](CCCCNC(=O)COCCOCCNC(=O)COCCOCCNC(=O)CC[C@H](NC(=O)CCCCCCCCCCC)C(=O)O)NC(=O)[C@H](Cc1ccc(O)cc1)NC(=O)[C@H](CO)NC(=O)C(C)(CO)NC(=O)[C@@H](NC(=O)[C@H](CC(=O)O)NC(=O)[C@H](CO)NC(=O)[C@@H](NC(=O)C(C)(Cc1ccccc1)NC(=O)[C@H](CO)NC(=O)CNC(=O)[C@H](CCC(=O)O)NC(=O)C(C)(C)NC(=O)[C@@H](N)Cc1c[nH]cn1)[C@@H](C)O)C(C)C)[C@@H](C)CC)C(=O)N[C@H](C(=O)N[C@H](C(=O)N[C@@H](CCC(=O)O)C(=O)NCC(=O)NCC(N)=O)C(C)C)C(C)C)C(=O)O (stereo partly drawn) [SEQ ID NO: 9, Free-H-[AIB]-EGS-[αMePhe]-TSDV-[αMeSer]-SYK[(PEG2)2-γE-Lauroyl]-EGEAA-[αMeLys]-EFIAK[(PEG2)2-γE-Lauroyl]-VVEGG-amide] (H-H[Aib]EGS[ξαMeF]TSDV[ξαMeS]SYK([AEEA-AEEA-γGlu-Lauroyl])EGEAA[ξαMeK]EFIAK([AEEA-AEEA-γGlu-Lauroyl])VVEGG-NH2) |

— patent US11173124B2, “Oral delivery of GLP-1 peptide analogs” (MEDIMMUNE LIMITED, priority 2017, dated 2021)
